Results taken from patent US20200361871A1 (Enterprise Therapeutics Ltd., priority 2018, published 2020).

Target: human TMEM16A (TMEM16Aabc variant) (Homo sapiens, UniProt Q5XXA6, DEL476-501, form not given)
Assay: Automated whole-cell patch clamp (Qpatch) TMEM16A potentiator assay in FRT cells stably expressing human TMEM16A
Format: cell-based
Details: for % Potentiation @ 3.33 μM Avg: 3.33 μM solution of test compound, percentage increase of baseline TMEM16A current; for EC50: calculated EC50, Qpatch TMEM16A current at +70 mV
Outline: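 FRT cells stably expressing human TMEM16Aabc were recorded by automated whole-cell patch clamp, with intracellular Ca2+ buffered for ~EC20 activation, holding −70 mV and step to +70 mV at 0.05 Hz. Compound was applied cumulatively, 5 min per concentration. Peak current increase as % of baseline was fitted to give EC50 and maximum efficacy.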

Sequence of human TMEM16A (TMEM16Aabc variant) (Q5XXA6 with tags, fused parts or gaps DEL476-501): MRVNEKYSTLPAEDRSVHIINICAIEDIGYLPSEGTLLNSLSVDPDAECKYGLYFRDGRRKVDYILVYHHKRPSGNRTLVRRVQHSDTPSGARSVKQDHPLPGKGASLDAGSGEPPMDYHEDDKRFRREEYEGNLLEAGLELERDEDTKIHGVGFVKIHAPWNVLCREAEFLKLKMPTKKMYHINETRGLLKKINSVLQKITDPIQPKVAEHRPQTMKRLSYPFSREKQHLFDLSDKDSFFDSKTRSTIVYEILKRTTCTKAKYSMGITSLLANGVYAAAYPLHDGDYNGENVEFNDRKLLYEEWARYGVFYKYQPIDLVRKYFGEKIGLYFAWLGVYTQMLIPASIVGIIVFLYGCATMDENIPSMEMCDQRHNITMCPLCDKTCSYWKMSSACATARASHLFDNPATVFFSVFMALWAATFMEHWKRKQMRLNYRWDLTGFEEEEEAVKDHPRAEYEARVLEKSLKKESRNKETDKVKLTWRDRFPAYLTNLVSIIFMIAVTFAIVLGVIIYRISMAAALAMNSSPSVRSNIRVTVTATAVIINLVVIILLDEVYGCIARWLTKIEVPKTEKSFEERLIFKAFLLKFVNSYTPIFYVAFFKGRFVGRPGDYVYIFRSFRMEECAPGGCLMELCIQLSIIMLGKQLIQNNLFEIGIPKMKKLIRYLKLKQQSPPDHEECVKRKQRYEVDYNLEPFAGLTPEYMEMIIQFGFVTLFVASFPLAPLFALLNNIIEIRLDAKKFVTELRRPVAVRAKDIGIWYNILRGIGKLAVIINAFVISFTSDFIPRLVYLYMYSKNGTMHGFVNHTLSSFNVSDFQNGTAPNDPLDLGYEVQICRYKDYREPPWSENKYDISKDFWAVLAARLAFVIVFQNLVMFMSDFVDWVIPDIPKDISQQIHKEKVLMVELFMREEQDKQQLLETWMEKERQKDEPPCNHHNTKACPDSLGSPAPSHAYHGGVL

Row | Structure (SMILES) | % Potentiation @ 3.33 μM Avg [%] | EC50 [nM]
1 | N#CC1(NC(=O)c2cc(NC(=O)Cc3ccc4ncccc4c3)ccn2)CCC1 [Example 23.11, N-(1-Cyanocyclobutyl)-4-[[2-(6-quinolyl)acetyl]amino]pyridine-2-carboxamide] | 101 | –
2 | O=C(Cc1cc(Cl)ccc1O)Nc1ccnc(C(=O)NC2(CO)COC2)c1 [Example 35.26, 4-[[2-(5-Chloro-2-hydroxy-phenyl)acetyl]amino]-N-[3-(hydroxymethyl)oxetan-3-yl]pyridine-2-carboxamide] | 157 | –
3 | CC(C)(C)NC(=O)c1cc(NC(=O)Cc2cc(Cl)ccc2O)ncn1 [Example 85, N-tert-Butyl-6-[[2-(5-chloro-2-hydroxy-phenyl)acetyl]amino] pyrimidine-4-carboxamide] | 155 | 350
4 | CC(C)(C)NC(=O)c1cc(NC(=O)Cc2cc(Cl)c(CN3CCCC3)cc2O)ccn1 [Example 27, N-tert-Butyl-4-[[2-[5-chloro-2-hydroxy-4-(pyrrolidin-1-ylmethyl)phenyl]acetyl]amino]pyridine-2-carboxamide] | 90 | –
5 | CC(C)(C)NC(=O)c1cccc(NC(=O)Cc2cc(C(F)(F)F)ccc2O)c1 [Example 2.17, N-tert-Butyl-3-[[2-[2-hydroxy-5-(trifluoromethyl)phenyl]acetyl]amino]benzamide] | 172 | 270
6 | O=C(Cc1cc(Cl)ccc1O)Nc1ccnc(C(=O)NC2(CO)CCC2)c1 [Example 35.25, 4-[[2-(5-Chloro-2-hydroxy-phenyl)acetyl]amino]-N-[1-(hydroxymethyl)cyclobutyl]pyridine-2-carboxamide] | 126 | 100
7 | CC1(NC(=O)c2cc(NC(=O)Cc3cc(Cl)ccc3O)ccn2)CCCCC1 [Example 1.7, 4-[[2-(5-Chloro-2-hydroxy-phenyl)acetyl]amino]-N-(1-methylcyclohexyl)pyridine-2-carboxamide] | 239 | 150
8 | CC(C)(C)NC(=O)c1cccc(NC(=O)Cc2ccccc2O)c1 [Example 4.3, N-tert-Butyl-3-[[2-(2-hydroxyphenyl)acetyl]amino] benzamide] | 151 | 1530
9 | CC(C)(C#N)NC(=O)c1cc(NC(=O)CC2CCCCC2)ccn1 [Example 83.1, N-(1-Cyano-1-methyl-ethyl)-4-[(2-cyclohexylacetyl)amino]pyridine-2-carboxamide] | 159 | –
10 | COc1ccc(Cl)cc1CC(=O)Nc1cc(C(=O)NC(C)(C)C)ncn1 [Example 82, N-tert-Butyl-6-[[2-(5-chloro-2-methoxy-phenyl)acetyl]amino]pyrimidine-4-carboxamide] | 88 | 720
11 | O=C(Cc1cc(Cl)ccc1O)Nc1ccnc(C(=O)N[C@@]2(CO)CCOC2)c1 (single isomer, unassigned) [Example 35b, 4-[[2-(5-Chloro-2-hydroxy-phenyl)acetyl]amino]-N-[(3R)-3-(hydroxymethyl)tetrahydrofuran-3-yl]pyridine-2-carboxamide or 4-[[2-(5-chloro-2-hydroxy-phenyl)acetyl]amino]-N-[(3S)-3-(hydroxymethyl)tetrahydrofuran-3-yl]pyridine-2-carboxamide] | 190 | 310
12 | N#CC1(NC(=O)c2cc(NC(=O)Cc3ccccc3Cl)ccn2)CCC1 [Example 30, 4-[[2-(2-Chlorophenyl)acetyl]amino]-N-(1-cyanocyclobutyl)pyridine-2-carboxamide] | 113 | 1220
13 | CC(C)(C)NC(=O)c1cc(NC(=O)Cc2cc(O)ccc2Cl)ccn1 [Example 3.16b, N-tert-Butyl-4-[[2-(2-chloro-5-hydroxy-phenyl)acetyl]amino]pyridine-2-carboxamide] | 167 | 170
14 | Cn1nc(-c2ccccc2)cc1C(=O)Nc1ccnc(C(=O)NC(C)(C)C#N)c1 [Example 83.22, N-(1-Cyano-1-methyl-ethyl)-4-[(2-methyl-5-phenyl-pyrazole-3-carbonyl)amino]pyridine-2-carboxamide] | 85 | –
15 | C#CC1(NC(=O)c2cc(NC(=O)Cc3cc(Cl)ccc3O)ccn2)CCCC1 [Example 31.2, 4-[[2-(5-Chloro-2-hydroxy-phenyl)acetyl]amino]-N-(1-ethynylcyclopentyl)pyridine-2-carboxamide] | 110 | 10
16 | O=C(Cc1ccccc1Cl)Nc1ccnc(C(=O)NC23CCC(F)(C2)C3)c1 [Example 30.2, 4-[[2-(2-Chlorophenyl)acetyl]amino]-N-(4-fluoro-1-bicyclo[2.1.1]hexanyl)pyridine-2-carboxamide] | 221 | 180
17 | CC(C)(C#N)NC(=O)c1cc(NC(=O)Cc2ccccc2Cl)ccn1 [Example 30.3a, 4-[[2-(2-Chlorophenyl)acetyl]amino]-N-(1-cyano-1-methyl-ethyl)pyridine-2-carboxamide] | 221 | –
18 | CC(C)(C)NC(=O)c1cccc(NC(=O)CCc2ccccc2O)c1 [Example 2.5, N-tert-Butyl-3-[3-(2-hydroxyphenyl)propanamido]benzamide] | 51 | 1340
19 | CC(C)(C)NC(=O)c1cc(NC(=O)Cc2ccc(Cl)c(F)c2)ccn1 [Example 5.18, N-tert-Butyl-4-[[2-(4-chloro-3-fluoro-phenyl)acetyl]amino]pyridine-2-carboxamide] | 79 | 460
20 | CC(C)(C)NC(=O)c1cccc(NC(=O)Cc2cc(C#N)ccc2O)c1 [Example 12, N-tert-Butyl-3-[[2-(5-cyano-2-hydroxy-phenyl)acetyl]amino] benzamide] | 112 | 1760
21 | CC(C)(C#N)NC(=O)c1cc(NC(=O)C2CCC(F)(F)C2)ccn1 (centres unmarked) [Example 83.3, N-(1-Cyano-1-methyl-ethyl)-4-[(3,3-difluorocyclopentanecarbonyl)amino]pyridine-2-carboxamide] | 16 | –
22 | O=C(Cc1cc(Cl)ccc1O)Nc1ccnc(C(=O)N[C@H]2CC[C@@H](O)CC2)c1 [Example 7.12, 4-[2-(5-Chloro-2-hydroxyphenyl)acetamido]-N-[(1s,4s)-4-hydroxycyclohexyl]pyridine-2-carboxamide] | 101 | 2110
23 | COCC(C)(CO)NC(=O)c1cc(NC(=O)Cc2cc(Cl)ccc2O)ccn1 (centres unmarked) [Example 73, 4-[[2-(5-Chloro-2-hydroxy-phenyl)acetyl]amino]-N-[1-(hydroxymethyl)-2-methoxy-1-methyl-ethyl]pyridine-2-carboxamide] | 196 | 310
24 | CC(C)(C)NC(=O)c1cc(NC(=O)Cc2ccc3ncoc3c2)ccn1 [Example 5.15, 4-[[2-(1,3-Benzoxazol-6-yl)acetyl]amino]-N-tert-butyl-pyridine-2-carboxamide] | 87 | –
25 | CC(C#N)(CO)NC(=O)c1cc(NC(=O)Cc2cc(F)ccc2O)ccn1 (centres unmarked) [Example 81.1, N-(1-Cyano-2-hydroxy-1-methyl-ethyl)-4-[[2-(5-fluoro-2-hydroxy-phenyl)acetyl]amino] pyridine-2-carboxamide] | 108 | –
